Experimental data reported in article PMC10023787, “Trio-pharmacophore DNA-encoded chemical library for simultaneous selection of fragments and linkers” (Nature Communications, 2023).
Read-outs that look alike come from different tables or passages of the source. Blank lines part the entries; values can stand above or below the compound they belong to.

How the values were obtained:
MMP-2 = target: T1, MMP-2 (Homo sapiens, UniProt P08253); assay: MMP-2 inhibition assay (fluorogenic peptide substrate); assay type: biochemical; details: for IC50: n.d: not detected; for remaining activity (%): MMP-2
T1 construct: purchased Sino Biological 10082-HNAH
T1 sequence (P08253 110-660): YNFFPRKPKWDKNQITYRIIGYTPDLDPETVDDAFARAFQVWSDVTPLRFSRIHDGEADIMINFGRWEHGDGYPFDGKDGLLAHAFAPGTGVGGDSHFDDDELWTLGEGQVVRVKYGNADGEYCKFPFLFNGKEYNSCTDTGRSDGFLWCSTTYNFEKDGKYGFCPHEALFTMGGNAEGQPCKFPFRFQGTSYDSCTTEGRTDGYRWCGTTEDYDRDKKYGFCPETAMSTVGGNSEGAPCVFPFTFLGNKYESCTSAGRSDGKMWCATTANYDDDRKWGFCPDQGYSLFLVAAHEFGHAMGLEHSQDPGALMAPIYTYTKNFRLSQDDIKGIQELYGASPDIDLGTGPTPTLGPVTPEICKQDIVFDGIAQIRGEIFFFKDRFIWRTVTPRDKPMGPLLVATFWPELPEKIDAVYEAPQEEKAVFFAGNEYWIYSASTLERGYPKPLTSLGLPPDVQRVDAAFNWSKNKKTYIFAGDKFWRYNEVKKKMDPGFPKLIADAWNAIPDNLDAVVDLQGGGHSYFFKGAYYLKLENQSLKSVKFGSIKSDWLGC
Description: (§1) The inhibition by the small molecule compounds against MMP-2/MMP-9 was measured using an assay probing the enzyme proteolytic activity on the substrate DNP-Pro-Leu-Gly-Met-Trp-Ser-Arg (Enzo Life Sciences, USA). All assays were performed in the assay buffer containing 50 mM Tris, 100 mM NaCl. 5 mM CaCl2, and 0.1% Brij 35, pH 7.5. Human proMMP-2 and proMMP-9 were purchased from Sino biological (Germany). The proMMPs were activated by 1 mM APMA in the assay buffer at 37 °C for 2 h. After activation, MMP-2 was diluted to 6.5 nM of final assay concentration, and MMP-9 was diluted by the buffer to reach 10 nM of final assay concentration. In each well, 49 μl of enzyme solution was incubated with 1 μl of compounds of series of concentration (nM-mM in DMSO) at RT for 30 min. 2 μl of the FRET substrate was added right before the measurement at a final concentration of 25 μM. The rate of hydrolysis was monitored by quantifying the emission at 360 nm (ex: 280 nm). The emission was measured with intervals of the 30 s for 30 min with Synergy H1 Plate Reader (Agilent, USA). The measurements were done in triplicate. […] Then, curves were plotted as a function of the concentration of the inhibitor against the relative enzyme activity. Vmax was derived from the detected […] signal for each concentration and logistic fitting was performed to obtain IC50 values using Origin 2019b (OriginLab).

MMP-9 = target: T2, MMP-9 (Homo sapiens, UniProt P14780); assay: MMP-9 inhibition assay (fluorogenic peptide substrate); assay type: biochemical; parameters: remaining enzyme activity (% of control): scale not given here; details: for IC50: n.d: not detected; for remaining enzyme activity (% of control): MMP-9
T2 construct: purchased Sino Biological 10327-HNAH
T2 sequence (P14780 107-707 limits assumed): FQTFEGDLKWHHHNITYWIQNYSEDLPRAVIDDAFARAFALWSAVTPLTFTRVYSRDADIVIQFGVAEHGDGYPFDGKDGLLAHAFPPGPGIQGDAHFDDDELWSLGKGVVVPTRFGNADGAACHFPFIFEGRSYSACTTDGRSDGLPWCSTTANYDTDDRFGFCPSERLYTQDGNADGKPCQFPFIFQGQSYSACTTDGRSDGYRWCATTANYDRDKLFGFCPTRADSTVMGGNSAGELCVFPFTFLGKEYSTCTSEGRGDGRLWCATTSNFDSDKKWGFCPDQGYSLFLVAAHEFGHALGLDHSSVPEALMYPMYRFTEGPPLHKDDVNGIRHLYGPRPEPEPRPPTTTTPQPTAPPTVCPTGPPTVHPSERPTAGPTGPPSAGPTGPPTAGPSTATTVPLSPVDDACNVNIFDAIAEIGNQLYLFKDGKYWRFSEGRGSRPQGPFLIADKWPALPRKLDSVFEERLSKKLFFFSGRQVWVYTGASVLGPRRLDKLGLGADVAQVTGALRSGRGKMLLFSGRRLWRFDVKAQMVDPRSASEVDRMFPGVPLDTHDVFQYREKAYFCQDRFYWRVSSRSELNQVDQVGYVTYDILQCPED
Description: as §1

[1] = Figure 5d, fragment combination joined by linker, read-out: MMP2 IC50
[2] = Figure 5d, fragment combination joined by linker, read-out: MMP9 IC50
[3] = mean ± SE, Fig. 5d unit inferred, µM, read-out: IC50
[4] = mean ± SE, Fig. 5e prints no unit, µM, read-out: IC50

IC50 (MMP-2; [1]): 95.5 µM
IC50 (MMP-9; [2]): 143 µM
Structure (SMILES): O=C(Cn1cnc2c(oc3ccccc32)c1=O)NCc1c[nH]nn1 [182_787 1]

IC50 (MMP-2; [1]): 439 µM
Structure (SMILES): Cn1c(O)nc2cc(C(=O)NCCCCCCCCNC(=O)Cn3cnc4c(oc5ccccc54)c3=O)cnc21 [182_826 4]

remaining activity (%) (MMP-2; concentration 0.0111 µM): 95.55
remaining activity (%) (MMP-2; concentration 0.0553 µM): 86.42
remaining activity (%) (MMP-2; concentration 0.28 µM): 84.28
remaining activity (%) (MMP-2; concentration 1.38 µM): 96.70
remaining activity (%) (MMP-2; concentration 6.91 µM): 90.43
remaining activity (%) (MMP-2; concentration 34.57 µM): 98.71
remaining activity (%) (MMP-2; concentration 172.86 µM): 67.90
remaining activity (%) (MMP-2; concentration 864.30 µM): 16.96
IC50 (MMP-2; [3]): 339 ± 63.3 µM
remaining enzyme activity (% of control) (MMP-9; concentration 0.0553 µM): 94.85
remaining enzyme activity (% of control) (MMP-9; concentration 0.28 µM): 91.07
remaining enzyme activity (% of control) (MMP-9; concentration 1.38 µM): 90.00
remaining enzyme activity (% of control) (MMP-9; concentration 6.91 µM): 80.21
remaining enzyme activity (% of control) (MMP-9; concentration 34.57 µM): 81.44
remaining enzyme activity (% of control) (MMP-9; concentration 172.86 µM): 37.12
remaining enzyme activity (% of control) (MMP-9; concentration 864.30 µM): 14.22
IC50 (MMP-9; [4]): 115 ± 78.3 µM
Structure (SMILES): O=C(/C=C/CCCCC(=O)NCc1c[nH]nn1)CC(=O)NCC12CC3CC(CC(C3)C1)C2 [66+787 Linker 12]

IC50 (MMP-2; [1]): 149 µM
IC50 (MMP-9; [2]): 270 µM
Structure (SMILES): Cc1cc(=O)[nH]c(-n2nc(C)c(CCC(=O)NCCSCC(=O)NCc3c[nH]nn3)c2C)n1 [693_787 24]

remaining activity (%) (MMP-2; concentration 0.12 µM): 101.73
remaining activity (%) (MMP-2; concentration 0.49 µM): 104.42
remaining activity (%) (MMP-2; concentration 1.95 µM): 99.57
remaining activity (%) (MMP-2; concentration 7.81 µM): 96.59
remaining activity (%) (MMP-2; concentration 31.25 µM): 91.55
remaining activity (%) (MMP-2; concentration 125.00 µM): 88.04
remaining activity (%) (MMP-2; concentration 500.00 µM): 85.39
remaining enzyme activity (% of control) (MMP-9; concentration 0.12 µM): 99.87
remaining enzyme activity (% of control) (MMP-9; concentration 0.49 µM): 98.00
remaining enzyme activity (% of control) (MMP-9; concentration 1.95 µM): 97.71
remaining enzyme activity (% of control) (MMP-9; concentration 7.81 µM): 90.00
remaining enzyme activity (% of control) (MMP-9; concentration 31.25 µM): 87.32
remaining enzyme activity (% of control) (MMP-9; concentration 125.00 µM): 80.00
remaining enzyme activity (% of control) (MMP-9; concentration 500.00 µM): 70.00
Structure (SMILES): Cn1c(O)nc2cc(C(=O)NCCOCCOCCNC(=O)CNC(=O)NC34CC5CC(CC(C5)C3)C4)cnc21 [66+826 Linker 10]

remaining activity (%) (MMP-2; concentration 0.0156 µM): 92.29
remaining activity (%) (MMP-2; concentration 0.08 µM): 75.74
remaining activity (%) (MMP-2; concentration 0.39 µM): 87.35
remaining activity (%) (MMP-2; concentration 1.95 µM): 94.03
remaining activity (%) (MMP-2; concentration 9.75 µM): 78.88
remaining activity (%) (MMP-2; concentration 48.76 µM): 75.04
remaining activity (%) (MMP-2; concentration 243.80 µM): 39.80
remaining activity (%) (MMP-2; concentration 1219.00 µM): 7.43
IC50 (MMP-2; [3]): 171 ± 12.6 µM
remaining enzyme activity (% of control) (MMP-9; concentration 0.08 µM): 96.44
remaining enzyme activity (% of control) (MMP-9; concentration 0.39 µM): 100.55
remaining enzyme activity (% of control) (MMP-9; concentration 1.95 µM): 96.19
remaining enzyme activity (% of control) (MMP-9; concentration 9.75 µM): 93.95
remaining enzyme activity (% of control) (MMP-9; concentration 48.76 µM): 88.14
remaining enzyme activity (% of control) (MMP-9; concentration 243.80 µM): 47.49
remaining enzyme activity (% of control) (MMP-9; concentration 1219.00 µM): 12.51
IC50 (MMP-9; [4]): 230 ± 51.3 µM
Structure (SMILES): Cc1cc(=O)[nH]c(-n2nc(C)c(CCC(=O)NCCOCCOCCNC(=O)CCC(=O)NCc3c[nH]nn3)c2C)n1 [693+787 Linker 10]

IC50 (MMP-9; [2]): 281 µM
Structure (SMILES): Cn1c(O)nc2cc(C(=O)NCCNC(=O)CSCCNC(=O)Cn3cnc4c(oc5ccccc54)c3=O)cnc21 [182_826 24]

IC50 (MMP-2; [1]): 578 µM
Structure (SMILES): O=C(CCC(=O)NCc1c[nH]nn1)NCCOCCOCCNC(=O)CNC(=O)NC12CC3CC(CC(C3)C1)C2 [66_787 10]

IC50 (MMP-9; [2]): 234 µM
Structure (SMILES): Cn1c(O)nc2cc(C(=O)NCC34CC5CC(CC(C5)C3)C4)cnc21 [66_826 1]

IC50 (MMP-9; [2]): 247 µM
Structure (SMILES): O=C(CNC(=O)NC12CC3CC(CC(C3)C1)C2)NCCCCCCCCNC(=O)c1cncc(O)c1 [66_828 4]

IC50 (MMP-9; [2]): 283 µM
Structure (SMILES): Cn1c(O)nc2cc(C(=O)NCCOCCOCCNC(=O)Cn3cnc4c(oc5ccccc54)c3=O)cnc21 [182_826 10]

IC50 (MMP-2; [1]): 861 µM
Structure (SMILES): O=C(CNC(=O)NC12CC3CC(CC(C3)C1)C2)NCCSCC(=O)NCc1c[nH]nn1 [66_787 24]
